Data from US10800791B2, “Triazole ACC inhibitors and uses thereof” (Gilead Apollo, LLC, priority 2015, dated 2020).
In brackets after ≈: the same amount, converted by molar mass. Like-named read-outs stand apart in the source and are kept apart here.

Experiments:
human (hACC2) = human (hACC2) (Homo sapiens, UniProt O00763); assay: In vitro ACC inhibition assay (ADP-Glo), hACC2; type: biochemical; conditions: Table 2b, additional results, 5 nM ACC2, 20 μM ATP, 20 μM acetyl-CoA
Procedure: The detailed procedure is as follows. […] 10 μL ADP glo reagent was added. […] 20 μL kinase detection reagent was added.

C. albicans = assay: Antifungal Activity Assay (broth microtiter MIC), C. albicans; type: cell-based, Candida albicans; conditions: Candida albicans, ATCC90028, 48 h
Method in brief: (§1)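 CLSI M27-A3 broth microdilution in RPMI 1640+MOPS, final inoculum 2.5×10^3 CFU/mL from overnight Sabouraud cultures grown at 35 °C. MIC read visually at 48 h against growth control.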

C. krusei = assay: Antifungal Activity Assay (broth microtiter MIC), C. krusei; type: cell-based, Candida krusei; conditions: Pichia kudriavzevii, ATCC6258, 48 h
Method in brief: as §1

C. parapsilosis = assay: Antifungal Activity Assay (broth microtiter MIC), C. parapsilosis; type: cell-based, Candida parapsilosis; conditions: Lodderomyces parapsilosis, ATCC22019, 48 h
Method in brief: as §1

Botrtyis cinerea (Bc) = assay: Growth inhibition assay of fungal pathogens, Bc; type: cell-based; conditions: 48 h, growth inhibition at 48 hours vs 2% DMSO control
Method in brief: (§2)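 Spores diluted in 17% V8 liquid media and incubated with compound at final 50, 10, 2 ppm or 2, 0.4, 0.08 ppm (2% DMSO). OD600 plus visual ratings at 24 and 48 hours, blank-subtracted; percent growth inhibition from 48 h readings relative to 2% DMSO control.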

[1] = test system: Collectotrichum graminicola (Cg); assay: Growth inhibition assay of fungal pathogens, Cg; type: cell-based; conditions: 48 h, growth inhibition at 48 hours vs 2% DMSO control
Method in brief: as §2

Diplodia maydis (Dm) = assay: Growth inhibition assay of fungal pathogens, Dm; type: cell-based; conditions: Stenocarpella maydis, 48 h, growth inhibition at 48 hours vs 2% DMSO control
Method in brief: as §2

[2] = test system: Fusarium moniliforme (Fm); assay: Growth inhibition assay of fungal pathogens, Fm; type: cell-based; conditions: Fusarium verticillioides, 48 h, read-out: Concentration at 90% Inhibition Fm
Method in brief: as §2

[3] = test system: Fusarium virguliforme (Fv); assay: Growth inhibition assay of fungal pathogens, Fv; type: cell-based; conditions: 48 h
Method in brief: as §2

[4] = test system: Phytophthora capsici (Pc); assay: Growth inhibition assay of fungal pathogens, Pc; type: cell-based; conditions: 48 h
Method in brief: as §2

Rhizoctonia solani (Rs) = assay: Growth inhibition assay of fungal pathogens, Rs; type: cell-based; conditions: 48 h
Septoria tritici (St) = assay: Growth inhibition assay of fungal pathogens, St; type: cell-based; conditions: Zymoseptoria tritici, 48 h, growth inhibition at 48 hours vs 2% DMSO control
Method in brief: as §2

fungal (fACC2) = fungal (fACC2) (UniProt Q00955); conditions: read-out: fACC2 (in vitro ACC2 Inhibition Assay, IC50); Table 2b, additional results; ADP-Glo, 5 nM ACC2, 20 μM ATP, 20 μM acetyl-CoA
fungal (fACC2), sequence (Q00955 whole entry): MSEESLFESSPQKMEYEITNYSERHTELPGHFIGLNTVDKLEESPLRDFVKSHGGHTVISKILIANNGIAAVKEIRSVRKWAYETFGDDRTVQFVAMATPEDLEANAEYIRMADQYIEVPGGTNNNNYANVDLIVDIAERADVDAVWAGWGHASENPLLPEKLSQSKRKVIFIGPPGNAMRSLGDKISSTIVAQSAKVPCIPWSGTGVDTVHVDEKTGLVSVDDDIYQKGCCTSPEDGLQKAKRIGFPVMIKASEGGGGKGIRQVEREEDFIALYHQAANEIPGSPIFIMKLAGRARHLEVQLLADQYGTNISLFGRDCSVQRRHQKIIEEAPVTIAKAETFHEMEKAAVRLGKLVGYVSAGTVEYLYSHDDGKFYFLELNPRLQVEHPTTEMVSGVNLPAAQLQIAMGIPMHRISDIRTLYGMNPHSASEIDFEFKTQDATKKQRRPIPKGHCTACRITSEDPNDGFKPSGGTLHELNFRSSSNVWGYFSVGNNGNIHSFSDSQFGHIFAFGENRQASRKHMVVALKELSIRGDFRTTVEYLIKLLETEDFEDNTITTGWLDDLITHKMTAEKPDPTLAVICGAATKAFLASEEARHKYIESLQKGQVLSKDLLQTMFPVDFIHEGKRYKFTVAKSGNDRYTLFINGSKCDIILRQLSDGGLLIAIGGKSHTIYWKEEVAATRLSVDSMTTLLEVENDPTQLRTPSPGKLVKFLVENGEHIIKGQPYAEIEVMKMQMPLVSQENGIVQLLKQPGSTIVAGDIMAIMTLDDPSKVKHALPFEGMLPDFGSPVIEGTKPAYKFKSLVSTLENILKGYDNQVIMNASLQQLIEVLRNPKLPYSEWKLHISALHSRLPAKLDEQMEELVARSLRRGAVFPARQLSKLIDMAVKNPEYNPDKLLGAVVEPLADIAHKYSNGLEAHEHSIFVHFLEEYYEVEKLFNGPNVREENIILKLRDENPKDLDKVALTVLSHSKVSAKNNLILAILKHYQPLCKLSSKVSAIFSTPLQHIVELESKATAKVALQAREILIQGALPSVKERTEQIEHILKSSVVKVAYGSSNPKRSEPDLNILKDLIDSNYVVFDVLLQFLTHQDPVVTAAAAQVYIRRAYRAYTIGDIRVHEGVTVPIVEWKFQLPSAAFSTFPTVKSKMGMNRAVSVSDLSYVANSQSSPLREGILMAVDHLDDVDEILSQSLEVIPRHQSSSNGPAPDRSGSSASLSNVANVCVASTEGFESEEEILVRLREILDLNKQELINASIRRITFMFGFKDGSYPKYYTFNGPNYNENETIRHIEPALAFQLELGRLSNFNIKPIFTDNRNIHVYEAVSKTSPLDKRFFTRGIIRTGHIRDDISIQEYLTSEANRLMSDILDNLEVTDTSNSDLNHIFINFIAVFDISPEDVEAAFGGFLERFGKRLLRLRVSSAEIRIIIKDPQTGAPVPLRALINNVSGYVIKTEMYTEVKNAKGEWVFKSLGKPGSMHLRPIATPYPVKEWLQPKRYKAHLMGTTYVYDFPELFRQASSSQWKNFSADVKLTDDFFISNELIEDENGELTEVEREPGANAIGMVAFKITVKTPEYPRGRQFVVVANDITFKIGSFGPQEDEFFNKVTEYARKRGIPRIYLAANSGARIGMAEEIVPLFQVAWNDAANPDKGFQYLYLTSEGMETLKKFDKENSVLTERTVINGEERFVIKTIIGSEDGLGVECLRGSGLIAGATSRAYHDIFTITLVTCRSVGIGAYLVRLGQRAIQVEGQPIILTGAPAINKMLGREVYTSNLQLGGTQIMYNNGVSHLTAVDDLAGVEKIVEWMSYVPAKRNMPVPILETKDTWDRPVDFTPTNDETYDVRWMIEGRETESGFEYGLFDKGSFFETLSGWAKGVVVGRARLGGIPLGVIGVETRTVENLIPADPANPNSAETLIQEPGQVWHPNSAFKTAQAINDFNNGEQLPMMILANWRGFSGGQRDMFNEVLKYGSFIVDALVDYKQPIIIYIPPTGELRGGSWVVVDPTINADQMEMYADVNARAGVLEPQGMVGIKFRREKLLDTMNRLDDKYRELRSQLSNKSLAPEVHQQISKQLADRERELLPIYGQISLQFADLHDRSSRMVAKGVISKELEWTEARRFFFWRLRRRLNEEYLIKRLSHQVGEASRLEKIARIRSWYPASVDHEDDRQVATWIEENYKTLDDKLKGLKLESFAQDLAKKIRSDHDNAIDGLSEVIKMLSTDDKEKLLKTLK

[5] = Table 3b (additional results), ATCC 90028, 3 replicates, MIC recorded at 48 h, read-out: MIC, C. albicans ATCC 90028
[6] = Table 3b (additional results), ATCC 6258, 3 replicates, MIC recorded at 48 h, read-out: MIC, C. krusei ATCC 6258
[7] = Table 3b (additional results), ATCC 22019, 3 replicates, MIC recorded at 48 h, read-out: MIC, C. parapsilosis ATCC 22019
[8] = Botrtyis cinerea, read-out: Concentration at 90% Inhibition Bc
[9] = Collectotrichum graminicola, read-out: Concentration at 90% Inhibition Cg
[10] = Diplodia maydis, read-out: Concentration at 90% Inhibition Dm
[11] = Fusarium moniliforme, growth inhibition at 48 hours vs 2% DMSO control
[12] = growth inhibition at 48 hours vs 2% DMSO control, read-out: Concentration at 90% Inhibition Fv
[13] = growth inhibition at 48 hours vs 2% DMSO control, read-out: Concentration at 90% Inhibition Pc
[14] = mycelial plugs, growth inhibition at 48 hours vs 2% DMSO control, read-out: Concentration at 90% Inhibition Rs
[15] = Septoria tritici, read-out: Concentration at 90% Inhibition St

human (hACC2), sequence (O00763 whole entry): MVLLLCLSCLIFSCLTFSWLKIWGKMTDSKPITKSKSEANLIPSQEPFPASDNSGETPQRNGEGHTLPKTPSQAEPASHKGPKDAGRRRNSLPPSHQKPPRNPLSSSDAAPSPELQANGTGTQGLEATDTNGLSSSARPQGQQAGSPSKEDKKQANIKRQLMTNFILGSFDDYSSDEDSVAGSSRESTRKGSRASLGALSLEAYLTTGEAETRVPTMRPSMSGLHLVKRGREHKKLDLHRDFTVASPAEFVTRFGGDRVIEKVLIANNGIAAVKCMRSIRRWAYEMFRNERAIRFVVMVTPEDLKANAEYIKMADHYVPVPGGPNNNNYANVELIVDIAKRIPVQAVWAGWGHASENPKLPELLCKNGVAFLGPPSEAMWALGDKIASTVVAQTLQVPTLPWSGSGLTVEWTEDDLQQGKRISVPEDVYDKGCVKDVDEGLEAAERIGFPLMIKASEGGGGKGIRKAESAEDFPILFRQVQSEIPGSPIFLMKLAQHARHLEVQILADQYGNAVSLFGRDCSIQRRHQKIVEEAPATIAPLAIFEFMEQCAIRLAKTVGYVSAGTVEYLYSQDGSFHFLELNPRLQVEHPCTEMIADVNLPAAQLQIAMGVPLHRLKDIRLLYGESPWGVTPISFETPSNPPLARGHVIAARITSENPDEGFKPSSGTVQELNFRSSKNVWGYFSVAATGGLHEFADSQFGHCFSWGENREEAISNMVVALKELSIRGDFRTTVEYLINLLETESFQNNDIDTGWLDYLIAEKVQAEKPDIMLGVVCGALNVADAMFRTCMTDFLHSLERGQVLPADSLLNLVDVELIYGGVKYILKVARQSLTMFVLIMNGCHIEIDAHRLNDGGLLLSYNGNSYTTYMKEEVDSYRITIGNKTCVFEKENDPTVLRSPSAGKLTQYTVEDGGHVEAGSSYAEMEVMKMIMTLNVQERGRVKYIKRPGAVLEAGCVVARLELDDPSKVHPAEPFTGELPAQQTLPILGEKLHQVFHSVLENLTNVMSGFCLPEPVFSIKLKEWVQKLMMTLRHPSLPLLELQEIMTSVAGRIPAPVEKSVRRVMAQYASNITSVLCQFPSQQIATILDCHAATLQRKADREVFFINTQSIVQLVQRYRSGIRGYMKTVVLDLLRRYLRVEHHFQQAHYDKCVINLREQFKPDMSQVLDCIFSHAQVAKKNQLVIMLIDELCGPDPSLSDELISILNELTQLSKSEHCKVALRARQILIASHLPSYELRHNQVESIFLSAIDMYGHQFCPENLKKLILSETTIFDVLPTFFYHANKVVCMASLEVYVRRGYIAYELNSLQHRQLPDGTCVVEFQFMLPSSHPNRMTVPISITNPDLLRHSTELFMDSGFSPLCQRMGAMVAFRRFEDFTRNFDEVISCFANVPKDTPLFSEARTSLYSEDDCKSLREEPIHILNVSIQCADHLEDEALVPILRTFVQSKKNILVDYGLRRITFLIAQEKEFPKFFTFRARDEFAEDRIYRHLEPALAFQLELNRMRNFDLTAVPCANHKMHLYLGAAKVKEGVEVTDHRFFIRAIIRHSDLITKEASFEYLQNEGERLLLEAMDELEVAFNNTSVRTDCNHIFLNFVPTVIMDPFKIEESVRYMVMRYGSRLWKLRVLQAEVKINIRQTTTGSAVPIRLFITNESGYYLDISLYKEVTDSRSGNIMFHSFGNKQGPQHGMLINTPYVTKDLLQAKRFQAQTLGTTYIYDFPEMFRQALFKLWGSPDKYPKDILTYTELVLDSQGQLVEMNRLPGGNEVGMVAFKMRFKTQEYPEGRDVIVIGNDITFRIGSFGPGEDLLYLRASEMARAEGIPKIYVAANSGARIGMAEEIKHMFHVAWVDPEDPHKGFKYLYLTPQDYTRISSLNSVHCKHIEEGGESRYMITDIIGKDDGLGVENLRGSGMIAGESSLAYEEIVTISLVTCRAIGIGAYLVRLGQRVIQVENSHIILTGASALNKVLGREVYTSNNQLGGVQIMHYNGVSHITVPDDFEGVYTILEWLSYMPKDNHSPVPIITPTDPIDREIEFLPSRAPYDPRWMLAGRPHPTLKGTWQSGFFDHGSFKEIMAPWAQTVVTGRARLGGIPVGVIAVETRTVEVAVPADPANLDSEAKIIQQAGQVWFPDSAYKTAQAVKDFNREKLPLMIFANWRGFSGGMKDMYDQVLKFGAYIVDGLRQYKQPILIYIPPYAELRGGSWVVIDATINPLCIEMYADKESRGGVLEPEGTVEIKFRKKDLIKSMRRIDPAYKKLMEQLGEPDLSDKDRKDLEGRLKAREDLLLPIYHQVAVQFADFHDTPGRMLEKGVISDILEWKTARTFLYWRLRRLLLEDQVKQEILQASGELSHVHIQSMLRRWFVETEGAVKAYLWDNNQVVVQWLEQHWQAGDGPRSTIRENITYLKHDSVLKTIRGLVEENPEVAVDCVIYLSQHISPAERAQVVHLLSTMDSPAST

Row | Structure (SMILES) | IC50 (human (hACC2)) | MIC (C. albicans; [5]) | MIC (C. krusei; [6]) | MIC (C. parapsilosis; [7]) | IC90 (Botrtyis cinerea (Bc); [8]) | IC90 [1, 9] | IC90 (Diplodia maydis (Dm); [10]) | IC90 [2, 11] | IC90 [3, 12] | IC90 [4, 13] | IC90 (Rhizoctonia solani (Rs); [14]) | IC90 (Septoria tritici (St); [15]) | IC50 (fungal (fACC2)) | other results
1 | CCNC(=O)[C@H](C)n1c(=O)c2c(C)c(-n3nccn3)sc2n(C[C@H](OCCC#N)c2cc(F)ccc2OC)c1=O [Compound I-253] | 5 to 10 nM | > 4.01 µg/mL | > 4.01 µg/mL | 2.01 to 4 µg/mL (≈ 3.53 to 7.02 µM) | 2 µg/mL (≈ 3.51 µM) | 10 µg/mL (≈ 17.6 µM) | 10 µg/mL (≈ 17.6 µM) | 0.4 µg/mL (≈ 0.702 µM) | 10 µg/mL (≈ 17.6 µM) | > 50 µg/mL | 2 µg/mL (≈ 3.51 µM) | > 50 µg/mL | 0.3 to 1 nM | –
2 | CCNC(=O)C(C)(C)n1c(=O)c2c(C)c(-n3nccn3)sc2n(C[C@@H](O)c2cc(F)ccc2OC)c1=O [Compound I-254] | > 40 nM | 2.01 to 4 µg/mL (≈ 3.79 to 7.54 µM) | 2.01 to 4 µg/mL (≈ 3.79 to 7.54 µM) | 2.01 to 4 µg/mL (≈ 3.79 to 7.54 µM) | > 50 µg/mL | > 50 µg/mL | > 50 µg/mL | 10 µg/mL (≈ 18.8 µM) | > 50 µg/mL | > 50 µg/mL | 2 µg/mL (≈ 3.77 µM) | > 50 µg/mL | 1 to 5 nM | –
3 | CCNC(=O)C(C)(C)n1c(=O)c2c(C)c(-n3nccn3)sc2n(C[C@H](O)c2cc(F)ccc2OC)c1=O [Compound I-255] | 10 to 40 nM | 2.01 to 4 µg/mL (≈ 3.79 to 7.54 µM) | 2.01 to 4 µg/mL (≈ 3.79 to 7.54 µM) | 2.01 to 4 µg/mL (≈ 3.79 to 7.54 µM) | 2 µg/mL (≈ 3.77 µM) | 2 µg/mL (≈ 3.77 µM) | 2 µg/mL (≈ 3.77 µM) | 0.08 µg/mL (≈ 0.151 µM) | 0.4 µg/mL (≈ 0.754 µM) | > 50 µg/mL | 0.4 µg/mL (≈ 0.754 µM) | > 50 µg/mL | 0.3 to 1 nM | –
4 | COc1ccccc1[C@@H](O)Cn1c(=O)n(C(C)(C)C(=O)NC(C)C)c(=O)c2c(C)c(-n3nccn3)sc21 [Compound I-256] | 5 to 10 nM | – | – | – | – | – | – | – | – | – | – | – | 1 to 5 nM | MIC (C. albicans; read-out: MIC, C. albicans ATCC 90028, Table 3b (additional results), 3 replicates, MIC recorded at 48 h): 1.01 to 2 µg/mL (≈ 1.92 to 3.8 µM); MIC (C. krusei; read-out: MIC, C. krusei ATCC 6258, Table 3b (additional results), 3 replicates, MIC recorded at 48 h): 0.25 to 1 µg/mL (≈ 0.475 to 1.9 µM); MIC (C. parapsilosis; read-out: MIC, C. parapsilosis ATCC 22019, Table 3b (additional results), 3 replicates, MIC recorded at 48 h): 0.25 to 1 µg/mL (≈ 0.475 to 1.9 µM); IC90 (Botrtyis cinerea (Bc); read-out: Concentration at 90% Inhibition Bc, Botrtyis cinerea): 0.4 µg/mL (≈ 0.76 µM); IC90 ([1]; read-out: Concentration at 90% Inhibition Cg, Collectotrichum graminicola): 2 µg/mL (≈ 3.8 µM); IC90 (Diplodia maydis (Dm); read-out: Concentration at 90% Inhibition Dm, Diplodia maydis): 2 µg/mL (≈ 3.8 µM); IC90 [2]: 0.08 µg/mL (≈ 0.152 µM); IC90 ([3]; read-out: Concentration at 90% Inhibition Fv, Fusarium virguliforme, growth inhibition at 48 hours vs 2% DMSO control): 0.08 µg/mL (≈ 0.152 µM); IC90 ([4]; read-out: Concentration at 90% Inhibition Pc, Phytophthora capsici, growth inhibition at 48 hours vs 2% DMSO control): 10 µg/mL (≈ 19 µM); IC90 (Rhizoctonia solani (Rs); read-out: Concentration at 90% Inhibition Rs, Rhizoctonia solani, mycelial plugs, growth inhibition at 48 hours vs 2% DMSO control): 0.08 µg/mL (≈ 0.152 µM); IC90 (Septoria tritici (St); read-out: Concentration at 90% Inhibition St, Septoria tritici): > 50 µg/mL
5 | CCNC(=O)C(C)(C)n1c(=O)c2c(C)c(-n3nccn3)sc2n(C[C@H](OC(C)=O)c2cc(F)ccc2OC)c1=O [Compound I-257] | > 40 nM | 2.01 to 4 µg/mL (≈ 3.51 to 6.99 µM) | 1.01 to 2 µg/mL (≈ 1.76 to 3.49 µM) | 2.01 to 4 µg/mL (≈ 3.51 to 6.99 µM) | > 50 µg/mL | > 50 µg/mL | > 50 µg/mL | 10 µg/mL (≈ 17.5 µM) | > 50 µg/mL | > 50 µg/mL | > 50 µg/mL | > 50 µg/mL | 5 to 10 nM | –
6 | COc1ccc(F)cc1[C@H](Cn1c(=O)n(C(C)(C)C(=O)NC(C)C)c(=O)c2c(C)c(-n3nccn3)sc21)OC(C)=O [Compound I-258] | > 40 nM | 0.25 to 1 µg/mL (≈ 0.426 to 1.7 µM) | 0.25 to 1 µg/mL (≈ 0.426 to 1.7 µM) | 1.01 to 2 µg/mL (≈ 1.72 to 3.41 µM) | 10 µg/mL (≈ 17 µM) | > 50 µg/mL | > 50 µg/mL | 10 µg/mL (≈ 17 µM) | 10 µg/mL (≈ 17 µM) | > 50 µg/mL | > 50 µg/mL | > 50 µg/mL | 5 to 10 nM | –
7 | CCNC(=O)C(C)(C)n1c(=O)c2c(C)c(-n3nccn3)sc2n(C[C@@H](OC(C)=O)c2cc(F)ccc2OC)c1=O [Compound I-260] | 10 to 40 nM | 2.01 to 4 µg/mL (≈ 3.51 to 6.99 µM) | 1.01 to 2 µg/mL (≈ 1.76 to 3.49 µM) | 2.01 to 4 µg/mL (≈ 3.51 to 6.99 µM) | 2 µg/mL (≈ 3.49 µM) | 10 µg/mL (≈ 17.5 µM) | 10 µg/mL (≈ 17.5 µM) | 0.4 µg/mL (≈ 0.699 µM) | 2 µg/mL (≈ 3.49 µM) | > 50 µg/mL | 2 µg/mL (≈ 3.49 µM) | > 50 µg/mL | 0.3 to 1 nM | –
